In publication PMC12584615, “Degradation of 2,4-D by plant growth-promoting Cupriavidus sp. DSPFs: role in mitigating herbicide toxicity in soil and enhancing crop production” (Microbiology Spectrum, 2025):
Each block holds one compound with its values, some of them ahead of it.

Experiments:
[1] = target: 2,4-dichlorophenol-6-monooxygenase from Cupriavidus sp. strain DSPFs (Cupriavidus sp. strain DSPFs); assay: SEC; ENrich SEC 650 column (24 mL) in 50 mM potassium phosphate buffer pH 7.5, 4°C; calibrated with mass markers from 12.4 to 669 kDa; native mass from log(mol mass) versus Ve/V0, compared with the subunit mass from SDS-PAGE
[2] = target: T1, 2,4-dichlorophenol-6-monooxygenase (24DCPM); assay: spectrophotometric NAD(P)H consumption at […] nm, uncompetitive substrate inhibition fit; type: biochemical, Cupriavidus sp. DSPFs; settings: substrate inhibition constant; 200 µM NADH; phosphate buffer 50 mM pH 7.5; 6.25 µM FAD
T1 construct: gene tfdB; homotetramer ~255 kDa, subunit ~65 kDa

[3] = tested on: T1, 2,4-dichlorophenol-6-monooxygenase (24DCPM); assay: as above; type: biochemical, Cupriavidus sp. DSPFs; settings: 200 µM NADH; phosphate buffer 50 mM pH 7.5; 6.25 µM FAD; read-out: Km (μM) / I^a
[4] = tested on: T1, 2,4-dichlorophenol-6-monooxygenase (24DCPM); assay: spectrophotometric NAD(P)H consumption at […] nm, Michaelis-Menten fit; type: biochemical, Cupriavidus sp. DSPFs; settings: 50 µM 2,4-dichlorophenol; phosphate buffer 50 mM pH 7.5; 6.25 µM FAD; read-out: Km (μM) / I^a

stoichiometry N [1]: 4
Compound: 2,4-dichlorophenol-6-monooxygenase from Cupriavidus sp. strain DSPFs (enzyme)

Compound: Oc1ccc(Cl)cc1Cl [2,4-DCP, 2,4-dichlorophenol]
Ki (μM) / I [2]: 374 ± 80 µM
Km [3]: 3.1 ± 0.8 µM

Compound: NC(=O)C1=CN([C@@H]2O[C@H](COP(=O)(O)OP(=O)(O)OC[C@H]3O[C@@H](n4cnc5c(N)ncnc54)[C@H](O)[C@@H]3O)[C@@H](O)[C@H]2O)C=CC1 [NADH]
Km [4]: 205 ± 47 µM

Compound: NC(=O)C1=CN([C@@H]2O[C@H](COP(=O)(O)OP(=O)(O)OC[C@H]3O[C@@H](n4cnc5c(N)ncnc54)[C@H](OP(=O)(O)O)[C@@H]3O)[C@@H](O)[C@H]2O)C=CC1 [NADPH]
Km [4]: 46.8 ± 6 µM
